From ChEMBL document CHEMBL1201862, “PubChem BioAssay data set” (2004)
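96-well plates; 48 h exposure; 5 concentrations. Endpoints by linear interpolation between flanking doses. Not reached: highest tested concentration assigned. GI50: concentration for 50% inhibition of growth.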 Activity calls are given as the source filed them. No stated cut-off is given here; in the data, active = GI50 up to about 1.1 µM and inactive = higher.

How the values were obtained:
Test in all cases: NCI tumour cell line growth inhibition, 48 h
SF-268 = system: SF-268
SN12C = system: SN12C
SF-295 = system: SF-295
SNB-78 = system: SNB-78
SK-MEL-2 = system: SK-MEL-2
SK-OV-3 = system: SK-OV-3
786-0 = system: 786-0
UACC-62 = system: UACC-62
COLO 205 = system: COLO 205
SK-MEL-5 = system: SK-MEL-5
TK-10 = system: TK-10
SK-MEL-28 = system: SK-MEL-28
OVCAR-5 = system: OVCAR-5
RXF 393 = system: RXF 393
SW-620 = system: SW-620
UO-31 = system: UO-31
Malme-3M = system: Malme-3M
LXFL 529 = system: LXFL 529
MOLT-4 = system: MOLT-4
ACHN = system: ACHN
U-251 = system: U-251
HCT-15 = system: HCT-15
UACC-257 = system: UACC-257
HT-29 = system: HT-29
A549 = system: A549
K562 = system: K562
KM-20L2 = system: KM-20L2
DMS-273 = system: DMS-273
IGROV-1 = system: IGROV-1
RPMI-8226 = system: RPMI-8226
EKVX = system: EKVX
KM12 = system: KM12
OVCAR-3 = system: OVCAR-3
SR = system: SR
M19-MEL = system: M19-MEL
SNB-19 = system: SNB-19
CAKI-1 = system: CAKI-1
NCI-H23 = system: NCI-H23
NCI-H226 = system: NCI-H226
HCC 2998 = system: HCC 2998
SF-539 = system: SF-539
HCT-116 = system: HCT-116
DMS-114 = system: DMS-114
SNB-75 = system: SNB-75
OVCAR-8 = system: OVCAR-8
T47D = system: T47D
OVCAR-4 = system: OVCAR-4
MDA-N = system: MDA-N
NCI-H460 = system: NCI-H460
DU-145 = system: DU-145
MDA-MB-435 = system: MDA-MB-435
MDA-MB-231 = system: MDA-MB-231
M14 = system: M14
HOP-62 = system: HOP-62
Hs-578T = system: Hs-578T
HOP-92 = system: HOP-92
NCI/ADR-RES = system: NCI/ADR-RES
LOX IMVI = system: LOX IMVI
PC-3 = system: PC-3
A498 = system: A498
HL-60 = system: HL-60
NCI-H522 = system: NCI-H522
MCF7 = system: MCF7
BT-549 = system: BT-549
CCRF-CEM = system: CCRF-CEM

Measured: GI50

COc1ccc2c(c1)OCCCN(C)OC2c1ccccc1 (stereo not given)
inactive: SF-268 > 100 µM | SN12C > 100 µM | SF-295 > 100 µM | SNB-78 > 100 µM | SK-MEL-2 > 100 µM | SK-OV-3 > 100 µM | 786-0 > 100 µM | UACC-62 > 100 µM | COLO 205 > 100 µM | SK-MEL-5 > 100 µM | TK-10 > 100 µM | SK-MEL-28 89.3 µM | OVCAR-5 > 100 µM | RXF 393 > 100 µM | SW-620 > 100 µM | UO-31 > 100 µM | Malme-3M > 100 µM | LXFL 529 > 100 µM | MOLT-4 > 100 µM | ACHN > 100 µM | U-251 > 100 µM | UACC-257 > 100 µM | HT-29 > 100 µM | A549 > 100 µM | K562 > 100 µM | KM-20L2 > 100 µM | DMS-273 > 100 µM | IGROV-1 > 100 µM | RPMI-8226 > 100 µM | EKVX > 100 µM | KM12 > 100 µM | OVCAR-3 > 100 µM | SR > 100 µM | M19-MEL > 100 µM | SNB-19 > 100 µM | CAKI-1 > 100 µM | NCI-H23 > 100 µM | NCI-H226 > 100 µM | HCC 2998 > 100 µM | SF-539 > 100 µM | HCT-116 > 100 µM | DMS-114 > 100 µM | SNB-75 > 100 µM | OVCAR-8 > 100 µM
> 100 µM: HCT-15

COc1ccc(CCN2COc3ccc4ccc(=O)oc4c3C2)cc1OC
inactive: SF-268 60.4 µM | T47D > 100 µM | SN12C > 100 µM | SF-295 > 100 µM | SK-MEL-2 > 100 µM | SK-OV-3 > 100 µM | 786-0 > 100 µM | UACC-62 50.2 µM | OVCAR-4 > 100 µM | COLO 205 > 100 µM | MDA-N > 100 µM | NCI-H460 66.8 µM | SK-MEL-5 58.1 µM | TK-10 > 100 µM | SK-MEL-28 > 100 µM | OVCAR-5 > 100 µM | RXF 393 85.7 µM | SW-620 24.2 µM | UO-31 > 100 µM | DU-145 > 100 µM | Malme-3M > 100 µM | MOLT-4 > 100 µM | ACHN > 100 µM | MDA-MB-435 > 100 µM | MDA-MB-231 > 100 µM | U-251 88.9 µM | M14 > 100 µM | UACC-257 > 100 µM | HT-29 78.5 µM | A549 > 100 µM | HOP-62 > 100 µM | K562 50.4 µM | Hs-578T > 100 µM | HOP-92 21 µM | IGROV-1 > 100 µM | NCI/ADR-RES > 100 µM | RPMI-8226 22.4 µM | LOX IMVI 20.9 µM | EKVX > 100 µM | KM12 > 100 µM | PC-3 > 100 µM | A498 > 100 µM | OVCAR-3 > 100 µM | SR 24.3 µM | HL-60 19.1 µM | SNB-19 > 100 µM | NCI-H522 > 100 µM | CAKI-1 > 100 µM | NCI-H23 > 100 µM | NCI-H226 > 100 µM | HCC 2998 > 100 µM | SF-539 > 100 µM | HCT-116 66.5 µM | MCF7 89.5 µM | SNB-75 > 100 µM | BT-549 > 100 µM | CCRF-CEM 23.7 µM | OVCAR-8 > 100 µM
> 100 µM: HCT-15

Cc1cnc2cc(Cl)ccc2c1NCCN(CC(C)C)CC(C)C
inactive: SF-268 > 100 µM | SF-295 32.7 µM | SNB-78 41.1 µM | SK-MEL-2 > 100 µM | SK-OV-3 > 100 µM | UACC-62 > 100 µM | OVCAR-4 > 100 µM | COLO 205 > 100 µM | NCI-H460 > 100 µM | SK-MEL-28 > 100 µM | OVCAR-5 > 100 µM | UO-31 9.23 µM | LXFL 529 59.8 µM | MOLT-4 > 100 µM | ACHN > 100 µM | U-251 > 100 µM | M14 > 100 µM | UACC-257 > 100 µM | HT-29 8.3 µM | HOP-62 67.6 µM | K562 9.53 µM | KM-20L2 17.5 µM | HOP-92 11.1 µM | IGROV-1 > 100 µM | RPMI-8226 13.6 µM | KM12 > 100 µM | OVCAR-3 13.3 µM | SR > 100 µM | HL-60 9.75 µM | M19-MEL > 100 µM | SNB-19 > 10 µM | NCI-H522 13.1 µM | NCI-H23 95.3 µM | HCC 2998 > 100 µM | SF-539 > 100 µM | HCT-116 78.7 µM | DMS-114 8.18 µM | SNB-75 > 100 µM

O=c1cc(/N=N\c2ccc(Cl)cc2)[nH]c(=O)[nH]1
1.96 µM: HCT-15
active: HL-60 1.11 µM | CAKI-1 0.923 µM
inactive: SF-268 4.61 µM | T47D 3.18 µM | SN12C 3.98 µM | SF-295 13.9 µM | SK-MEL-2 13.3 µM | SK-OV-3 14.7 µM | 786-0 1.66 µM | UACC-62 3.48 µM | OVCAR-4 4.42 µM | COLO 205 2.33 µM | MDA-N 4.71 µM | NCI-H460 5.52 µM | SK-MEL-5 10.6 µM | TK-10 7.55 µM | SK-MEL-28 4.69 µM | OVCAR-5 13.6 µM | RXF 393 6.37 µM | SW-620 2.33 µM | UO-31 4.82 µM | DU-145 9.23 µM | Malme-3M 3.01 µM | MOLT-4 2.9 µM | ACHN 2.32 µM | MDA-MB-435 4.84 µM | MDA-MB-231 3.6 µM | U-251 4.81 µM | M14 3.95 µM | UACC-257 4.83 µM | HT-29 2.35 µM | A549 10.1 µM | HOP-62 7.74 µM | K562 3.43 µM | Hs-578T 5.68 µM | HOP-92 2.07 µM | IGROV-1 3.44 µM | NCI/ADR-RES 7.4 µM | RPMI-8226 3.19 µM | LOX IMVI 1.57 µM | EKVX 4.09 µM | KM12 5.27 µM | PC-3 7.05 µM | A498 > 10 µM | OVCAR-3 4.12 µM | SR 1.2 µM | SNB-19 10.3 µM | NCI-H522 1.71 µM | NCI-H23 7.67 µM | NCI-H226 12.9 µM | HCC 2998 3.78 µM | SF-539 4.44 µM | HCT-116 1.94 µM | MCF7 3.97 µM | SNB-75 14.5 µM | BT-549 3.88 µM | CCRF-CEM 1.44 µM | OVCAR-8 5.68 µM

CN1Cc2c(ccc3c2OCO3)[C@@H]2[C@H](O)Cc3cc4c(cc3[C@@H]21)OCO4
active: MDA-N 0.435 µM | MDA-MB-435 0.52 µM
2.02 µM: HCT-15
inactive: SF-268 4.82 µM | T47D 9.23 µM | SN12C 5.06 µM | SF-295 2.14 µM | SK-MEL-2 2.68 µM | SK-OV-3 3.16 µM | 786-0 4.09 µM | UACC-62 3.05 µM | OVCAR-4 > 86.7 µM | COLO 205 2.2 µM | NCI-H460 3.01 µM | SK-MEL-5 1.41 µM | TK-10 5.46 µM | SK-MEL-28 4.98 µM | OVCAR-5 12.1 µM | RXF 393 2.72 µM | SW-620 3.62 µM | UO-31 6.28 µM | DU-145 4.4 µM | Malme-3M 4.63 µM | MOLT-4 3.08 µM | ACHN 11 µM | MDA-MB-231 3.29 µM | U-251 3.19 µM | M14 2.2 µM | UACC-257 5.26 µM | HT-29 2.14 µM | A549 4.15 µM | HOP-62 3.09 µM | K562 2.61 µM | Hs-578T 3.59 µM | HOP-92 46.5 µM | IGROV-1 3.87 µM | NCI/ADR-RES 2.35 µM | RPMI-8226 4.39 µM | LOX IMVI 4.51 µM | EKVX 4.51 µM | KM12 2.48 µM | PC-3 2.66 µM | A498 2.17 µM | OVCAR-3 2.2 µM | SR 4.15 µM | HL-60 1.46 µM | SNB-19 3.41 µM | NCI-H522 2.92 µM | CAKI-1 4.89 µM | NCI-H23 3.31 µM | NCI-H226 3.01 µM | HCC 2998 2.11 µM | SF-539 2.07 µM | HCT-116 3.4 µM | MCF7 2.11 µM | SNB-75 2.62 µM | BT-549 2.55 µM | CCRF-CEM 2.82 µM | OVCAR-8 3.62 µM
